How the values were obtained:
[1] = biological target: Cyclin-dependent kinase 7 (Homo sapiens, UniProt P50613); conditions: at 10 µM
[2] = biological target: Serine/threonine-protein kinase pim-1 (Homo sapiens, UniProt P11309); assay: Selectivity interaction (KinomeScan (DiscoverX)) EUB0000229b PIM1; conditions: at 10 µM
[3] = biological target: Mitotic checkpoint serine/threonine-protein kinase BUB1 (Homo sapiens, UniProt O43683); assay: Selectivity interaction (KinomeScan (DiscoverX)) EUB0000229b BUB1; conditions: at 10 µM
[4] = biological target: Ribosomal protein S6 kinase alpha-1 (Homo sapiens, UniProt Q15418); assay: Selectivity interaction (KinomeScan (DiscoverX)) EUB0000229b RPS6KA1; conditions: at 10 µM
[5] = biological target: Bone morphogenetic protein receptor type-1A (Homo sapiens, UniProt P36894); assay: Selectivity interaction (KinomeScan (DiscoverX)) EUB0000092b BMPR1A; conditions: at 10 µM
[6] = biological target: Proto-oncogene tyrosine-protein kinase ROS (Homo sapiens) (UniProt P08922); assay: Selectivity interaction (KinomeScan (DiscoverX)) EUB0000092b ROS1; conditions: at 10 µM
Proto-oncogene tyrosine-protein kinase ROS (Homo sapiens), sequence (P08922 whole entry, the tested form may be a part): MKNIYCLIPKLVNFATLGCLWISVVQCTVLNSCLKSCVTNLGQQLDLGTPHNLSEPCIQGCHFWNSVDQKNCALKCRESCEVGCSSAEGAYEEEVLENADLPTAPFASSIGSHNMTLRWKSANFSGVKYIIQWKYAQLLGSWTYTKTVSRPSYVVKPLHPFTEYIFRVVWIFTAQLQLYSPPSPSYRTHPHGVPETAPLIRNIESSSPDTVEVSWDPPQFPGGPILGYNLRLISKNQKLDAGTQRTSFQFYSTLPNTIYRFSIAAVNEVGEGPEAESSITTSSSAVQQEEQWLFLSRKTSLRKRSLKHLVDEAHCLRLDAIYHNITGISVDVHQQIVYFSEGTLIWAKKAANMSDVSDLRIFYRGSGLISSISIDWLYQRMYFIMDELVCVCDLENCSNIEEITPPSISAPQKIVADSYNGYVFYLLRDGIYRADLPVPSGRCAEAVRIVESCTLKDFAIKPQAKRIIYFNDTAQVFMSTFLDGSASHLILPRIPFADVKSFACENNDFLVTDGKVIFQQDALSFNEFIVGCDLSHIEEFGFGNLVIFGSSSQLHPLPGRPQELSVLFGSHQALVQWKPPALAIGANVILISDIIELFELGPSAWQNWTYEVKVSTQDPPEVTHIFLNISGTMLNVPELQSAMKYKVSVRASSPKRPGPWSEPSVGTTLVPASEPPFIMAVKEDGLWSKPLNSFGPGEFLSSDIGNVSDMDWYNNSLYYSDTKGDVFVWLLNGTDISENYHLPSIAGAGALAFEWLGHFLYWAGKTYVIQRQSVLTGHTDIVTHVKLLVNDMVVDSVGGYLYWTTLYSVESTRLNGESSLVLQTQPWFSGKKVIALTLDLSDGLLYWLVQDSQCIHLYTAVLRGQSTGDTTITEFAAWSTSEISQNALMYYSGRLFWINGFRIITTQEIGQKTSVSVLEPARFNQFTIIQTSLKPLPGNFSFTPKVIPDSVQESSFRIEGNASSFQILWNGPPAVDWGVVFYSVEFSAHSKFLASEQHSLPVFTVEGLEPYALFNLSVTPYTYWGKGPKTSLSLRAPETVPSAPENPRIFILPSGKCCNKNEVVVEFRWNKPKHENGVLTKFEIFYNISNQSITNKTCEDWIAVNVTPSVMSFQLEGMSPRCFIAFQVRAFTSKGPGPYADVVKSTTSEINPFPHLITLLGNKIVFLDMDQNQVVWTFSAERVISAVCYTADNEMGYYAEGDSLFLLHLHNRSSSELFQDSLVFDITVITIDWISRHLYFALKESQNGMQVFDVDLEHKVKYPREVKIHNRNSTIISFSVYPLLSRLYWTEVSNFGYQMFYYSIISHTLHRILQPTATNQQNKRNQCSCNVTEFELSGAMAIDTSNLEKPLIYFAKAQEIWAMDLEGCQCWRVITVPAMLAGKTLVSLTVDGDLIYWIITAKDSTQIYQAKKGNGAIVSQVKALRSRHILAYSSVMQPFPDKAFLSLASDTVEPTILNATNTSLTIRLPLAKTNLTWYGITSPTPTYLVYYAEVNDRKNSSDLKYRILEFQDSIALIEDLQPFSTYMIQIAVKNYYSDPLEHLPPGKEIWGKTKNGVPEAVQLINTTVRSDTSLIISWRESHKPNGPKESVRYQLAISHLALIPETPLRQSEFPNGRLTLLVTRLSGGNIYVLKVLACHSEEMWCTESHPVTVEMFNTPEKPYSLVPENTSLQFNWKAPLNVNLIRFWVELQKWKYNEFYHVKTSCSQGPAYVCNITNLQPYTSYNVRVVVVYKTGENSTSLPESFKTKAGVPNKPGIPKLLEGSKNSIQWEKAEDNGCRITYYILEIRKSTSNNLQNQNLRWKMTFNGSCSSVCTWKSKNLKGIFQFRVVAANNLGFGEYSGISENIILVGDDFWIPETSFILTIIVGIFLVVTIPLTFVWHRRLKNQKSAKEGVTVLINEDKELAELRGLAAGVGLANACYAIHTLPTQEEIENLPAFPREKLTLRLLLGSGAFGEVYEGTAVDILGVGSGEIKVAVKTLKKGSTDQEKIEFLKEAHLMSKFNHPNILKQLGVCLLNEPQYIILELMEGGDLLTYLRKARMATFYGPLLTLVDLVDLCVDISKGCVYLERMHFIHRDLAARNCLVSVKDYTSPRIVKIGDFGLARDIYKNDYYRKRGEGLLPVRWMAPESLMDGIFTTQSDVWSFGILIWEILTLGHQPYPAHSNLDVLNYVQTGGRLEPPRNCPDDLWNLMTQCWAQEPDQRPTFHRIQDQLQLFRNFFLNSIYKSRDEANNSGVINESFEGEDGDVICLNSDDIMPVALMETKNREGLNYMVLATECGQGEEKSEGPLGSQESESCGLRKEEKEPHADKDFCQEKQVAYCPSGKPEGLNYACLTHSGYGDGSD

[7] = biological target: Phosphatidylinositol 4-phosphate 3-kinase C2 domain-containing subunit beta (Homo sapiens) (UniProt O00750); assay: Selectivity interaction (KinomeScan (DiscoverX)) EUB0000666a PIK3C2B; conditions: at 10 µM
[8] = biological target: Cyclin-dependent kinase 14 (Homo sapiens) (UniProt O94921); assay: Selectivity interaction (KinomeScan (DiscoverX)) EUB0000666a CDK14; conditions: at 10 µM
[9] = biological target: DNA (cytosine-5)-methyltransferase 3A (Homo sapiens) (UniProt Q9Y6K1); assay: Selectivity interaction (Transferase panel (protein, RNA, and DNA methyltransferases. and EP300 (acetyltransferase))) EUB0000270b DNMT3A
DNA (cytosine-5)-methyltransferase 3A (Homo sapiens), sequence (Q9Y6K1 whole entry, looked up): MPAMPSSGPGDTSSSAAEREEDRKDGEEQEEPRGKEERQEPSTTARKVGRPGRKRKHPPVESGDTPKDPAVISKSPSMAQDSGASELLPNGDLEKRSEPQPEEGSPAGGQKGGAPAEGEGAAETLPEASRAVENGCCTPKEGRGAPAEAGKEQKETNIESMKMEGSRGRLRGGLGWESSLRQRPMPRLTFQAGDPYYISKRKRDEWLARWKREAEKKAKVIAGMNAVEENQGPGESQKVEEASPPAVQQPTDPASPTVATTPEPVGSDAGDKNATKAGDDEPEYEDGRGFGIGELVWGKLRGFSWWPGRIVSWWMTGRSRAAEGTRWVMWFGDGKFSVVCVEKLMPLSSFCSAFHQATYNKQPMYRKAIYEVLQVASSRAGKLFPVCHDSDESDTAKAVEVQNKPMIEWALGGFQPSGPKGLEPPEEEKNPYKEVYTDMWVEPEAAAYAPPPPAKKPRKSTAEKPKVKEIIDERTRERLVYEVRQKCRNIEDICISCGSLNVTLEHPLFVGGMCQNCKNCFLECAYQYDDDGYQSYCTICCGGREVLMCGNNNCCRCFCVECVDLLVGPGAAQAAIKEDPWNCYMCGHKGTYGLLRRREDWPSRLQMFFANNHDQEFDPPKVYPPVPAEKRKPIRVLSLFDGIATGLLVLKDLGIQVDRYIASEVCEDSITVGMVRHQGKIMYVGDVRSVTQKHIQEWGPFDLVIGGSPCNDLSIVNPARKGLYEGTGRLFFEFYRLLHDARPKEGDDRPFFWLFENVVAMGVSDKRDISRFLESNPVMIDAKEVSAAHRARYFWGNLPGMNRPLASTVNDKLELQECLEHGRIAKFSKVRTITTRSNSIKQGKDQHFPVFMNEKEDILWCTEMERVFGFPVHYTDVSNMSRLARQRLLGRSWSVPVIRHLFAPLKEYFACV

[10] = biological target: Casein kinase II subunit alpha (Homo sapiens, UniProt P68400); assay: Selectivity interaction (Kinase panel (Enzyme activity assay)) EUB0000612a CSNK2A1
Casein kinase II subunit alpha, sequence (P68400 whole entry, canonical isoform): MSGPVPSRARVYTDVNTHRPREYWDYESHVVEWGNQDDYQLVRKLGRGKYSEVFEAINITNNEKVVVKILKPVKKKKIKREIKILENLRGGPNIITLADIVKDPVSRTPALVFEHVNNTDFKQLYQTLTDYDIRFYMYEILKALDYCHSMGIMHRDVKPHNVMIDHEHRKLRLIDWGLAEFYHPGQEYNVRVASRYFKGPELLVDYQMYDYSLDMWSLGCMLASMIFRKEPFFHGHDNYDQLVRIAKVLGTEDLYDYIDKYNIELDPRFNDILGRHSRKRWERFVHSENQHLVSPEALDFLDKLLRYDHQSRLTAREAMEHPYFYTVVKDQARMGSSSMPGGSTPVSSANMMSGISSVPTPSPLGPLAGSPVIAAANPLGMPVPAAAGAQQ

[11] = biological target: T1, Phosphatidylinositol 4,5-bisphosphate 3-kinase catalytic subunit delta isoform (Homo sapiens) (UniProt O00329); assay: Selectivity interaction (Kinase panel (Invitrogen)) EUB0000639a PIK3CD; conditions: at 200 nM
T1 sequence (whole entry): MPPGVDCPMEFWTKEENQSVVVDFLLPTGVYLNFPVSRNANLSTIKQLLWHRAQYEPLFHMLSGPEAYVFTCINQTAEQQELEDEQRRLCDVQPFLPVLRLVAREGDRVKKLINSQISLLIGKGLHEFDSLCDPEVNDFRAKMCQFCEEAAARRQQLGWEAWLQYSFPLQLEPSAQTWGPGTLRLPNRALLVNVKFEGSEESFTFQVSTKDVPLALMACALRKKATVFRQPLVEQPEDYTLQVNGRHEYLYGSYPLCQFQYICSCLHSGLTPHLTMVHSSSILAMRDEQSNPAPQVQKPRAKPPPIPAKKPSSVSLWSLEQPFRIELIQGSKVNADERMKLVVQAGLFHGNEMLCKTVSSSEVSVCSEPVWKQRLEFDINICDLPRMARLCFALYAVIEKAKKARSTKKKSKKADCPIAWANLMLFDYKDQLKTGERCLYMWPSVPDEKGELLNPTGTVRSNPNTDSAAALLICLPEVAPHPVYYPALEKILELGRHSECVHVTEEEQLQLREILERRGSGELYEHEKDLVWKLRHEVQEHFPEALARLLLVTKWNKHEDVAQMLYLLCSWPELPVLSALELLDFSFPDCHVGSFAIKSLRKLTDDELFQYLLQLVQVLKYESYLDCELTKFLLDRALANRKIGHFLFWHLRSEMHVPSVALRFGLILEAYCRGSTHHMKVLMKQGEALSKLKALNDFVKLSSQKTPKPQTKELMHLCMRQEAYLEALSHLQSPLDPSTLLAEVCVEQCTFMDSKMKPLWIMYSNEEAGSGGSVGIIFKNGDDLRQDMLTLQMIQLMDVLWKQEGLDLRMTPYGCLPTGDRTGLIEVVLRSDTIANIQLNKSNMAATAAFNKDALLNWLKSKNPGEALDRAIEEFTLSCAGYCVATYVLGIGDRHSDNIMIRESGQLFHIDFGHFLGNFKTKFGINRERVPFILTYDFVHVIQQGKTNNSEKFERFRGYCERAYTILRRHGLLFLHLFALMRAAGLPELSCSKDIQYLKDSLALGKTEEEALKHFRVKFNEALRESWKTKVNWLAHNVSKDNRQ

[12] = biological target: Tyrosine-protein kinase ABL1 (Homo sapiens, UniProt P00519); assay: Selectivity interaction (ActivX KiNativ screen (kinase selectivity in THP-1 cell lysates)) EUB0000639a ABL1; format: subcellular; conditions: lysate, at 0.2 µM
[13] = biological target: Protein-tyrosine kinase 2-beta (Homo sapiens) (UniProt Q14289); assay: Selectivity interaction (ActivX KiNativ screen (kinase selectivity in THP-1 cell lysates)) EUB0000639a PTK2B; format: subcellular; conditions: lysate
Protein-tyrosine kinase 2-beta (Homo sapiens), sequence (Q14289 whole entry, looked up): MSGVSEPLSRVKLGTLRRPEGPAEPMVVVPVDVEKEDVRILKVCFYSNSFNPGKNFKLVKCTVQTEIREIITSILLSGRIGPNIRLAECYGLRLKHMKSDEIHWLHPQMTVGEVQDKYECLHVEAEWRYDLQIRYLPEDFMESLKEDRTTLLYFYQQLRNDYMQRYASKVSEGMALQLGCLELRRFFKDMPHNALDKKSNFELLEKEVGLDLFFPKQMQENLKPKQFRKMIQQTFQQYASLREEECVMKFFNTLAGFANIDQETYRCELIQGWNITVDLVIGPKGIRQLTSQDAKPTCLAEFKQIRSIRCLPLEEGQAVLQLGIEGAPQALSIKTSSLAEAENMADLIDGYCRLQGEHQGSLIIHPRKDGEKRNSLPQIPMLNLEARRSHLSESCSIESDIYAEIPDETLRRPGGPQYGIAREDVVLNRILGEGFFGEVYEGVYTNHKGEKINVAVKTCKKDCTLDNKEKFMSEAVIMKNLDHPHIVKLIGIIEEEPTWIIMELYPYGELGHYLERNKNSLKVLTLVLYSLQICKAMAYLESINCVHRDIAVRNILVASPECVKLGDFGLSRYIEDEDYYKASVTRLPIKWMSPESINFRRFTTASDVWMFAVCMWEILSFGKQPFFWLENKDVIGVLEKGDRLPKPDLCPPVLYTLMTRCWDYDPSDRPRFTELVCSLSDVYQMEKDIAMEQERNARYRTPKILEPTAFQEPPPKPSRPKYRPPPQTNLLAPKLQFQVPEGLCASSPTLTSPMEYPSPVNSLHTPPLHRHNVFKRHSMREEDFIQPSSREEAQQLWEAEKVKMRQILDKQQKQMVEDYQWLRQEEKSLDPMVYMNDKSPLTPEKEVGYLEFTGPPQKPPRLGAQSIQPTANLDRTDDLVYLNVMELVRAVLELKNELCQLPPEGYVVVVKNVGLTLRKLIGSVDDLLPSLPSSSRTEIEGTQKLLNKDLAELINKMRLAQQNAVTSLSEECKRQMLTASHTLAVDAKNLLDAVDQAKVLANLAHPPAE

[14] = biological target: T2, Dual specificity mitogen-activated protein kinase kinase 5 (Homo sapiens) (UniProt Q13163); assay: Selectivity interaction (KinomeScan (DiscoverX)) EUB0000607a MAP2K5; conditions: at 10 µM
T2 sequence (whole entry): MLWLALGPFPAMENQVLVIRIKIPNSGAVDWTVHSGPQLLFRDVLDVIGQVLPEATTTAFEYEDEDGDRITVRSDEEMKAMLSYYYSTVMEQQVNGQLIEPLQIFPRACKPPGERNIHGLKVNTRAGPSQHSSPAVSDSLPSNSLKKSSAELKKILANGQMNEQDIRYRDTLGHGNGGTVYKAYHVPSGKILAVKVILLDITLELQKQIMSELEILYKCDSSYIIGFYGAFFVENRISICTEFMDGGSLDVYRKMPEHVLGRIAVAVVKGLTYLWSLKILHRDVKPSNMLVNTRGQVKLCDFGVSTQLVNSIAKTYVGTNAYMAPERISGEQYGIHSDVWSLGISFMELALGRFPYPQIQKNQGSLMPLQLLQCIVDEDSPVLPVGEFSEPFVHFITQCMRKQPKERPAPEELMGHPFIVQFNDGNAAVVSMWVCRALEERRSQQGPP

[15] = biological target: T3, Uncharacterized serine/threonine-protein kinase SBK3 (Homo sapiens) (UniProt P0C264); assay: Selectivity interaction (KinomeScan (DiscoverX)) EUB0001619a SBK3; conditions: at 1 µM
T3 sequence (whole entry): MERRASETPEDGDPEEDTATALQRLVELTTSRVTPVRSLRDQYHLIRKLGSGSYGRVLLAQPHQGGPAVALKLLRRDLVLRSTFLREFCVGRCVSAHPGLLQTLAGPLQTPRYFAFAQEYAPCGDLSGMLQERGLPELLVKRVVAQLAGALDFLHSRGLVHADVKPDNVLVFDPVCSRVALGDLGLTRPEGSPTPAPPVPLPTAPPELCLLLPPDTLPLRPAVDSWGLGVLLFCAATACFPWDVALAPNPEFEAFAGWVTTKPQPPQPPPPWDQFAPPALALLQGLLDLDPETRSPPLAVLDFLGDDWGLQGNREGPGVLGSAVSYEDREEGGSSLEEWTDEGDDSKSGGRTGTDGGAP

Cyclin-dependent kinase 7, sequence (P50613 whole entry): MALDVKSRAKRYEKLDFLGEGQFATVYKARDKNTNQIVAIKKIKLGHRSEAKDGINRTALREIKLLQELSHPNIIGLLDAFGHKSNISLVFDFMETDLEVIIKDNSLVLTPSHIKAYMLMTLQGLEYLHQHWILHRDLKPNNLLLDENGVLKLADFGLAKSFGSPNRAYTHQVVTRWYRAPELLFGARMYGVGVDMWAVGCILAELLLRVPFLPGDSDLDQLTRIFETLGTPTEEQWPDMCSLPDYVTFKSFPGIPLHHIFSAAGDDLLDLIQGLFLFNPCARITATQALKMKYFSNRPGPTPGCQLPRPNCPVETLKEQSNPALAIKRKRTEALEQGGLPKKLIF

CCN(CC)CCCCNc1ncc2cc(-c3cc(OC)cc(OC)c3)c(NC(=O)NC(C)(C)C)nc2n1
% of control [1]: 100%

COc1cc(N(C)c2ccnc3ccc(C(F)(F)F)cc23)cc(OC)c1OC
% binding [2]: 69%
% binding [3]: 98%
% binding [4]: 100%

CCC(=O)N1CCN(c2ccc(-n3c(=O)ccc4cnc5ccc(-c6cnc7ccccc7c6)cc5c43)cc2C(F)(F)F)CC1
% of control [5]: 45%
% of control [6]: 71%

O=C(NOC[C@H](O)CO)c1ccc(F)c(F)c1Nc1ccc(I)cc1F
% of control [7]: 100%
% of control [8]: 100%

Cc1cc(CN)cc(C)c1-c1ncn(C)c1-c1cncn1C
% activity ([9]; at 1 µM): > 90%
% activity ([9]; at 10 µM): > 80%

CCc1cccc(CC)c1NC(=O)c1nn(C)c2c1CCc1cnc(Nc3ccc(C(=O)NC4CCN(C)CC4)cc3OC(F)(F)F)nc1-2
IC50 [10]: 5.7 µM

CC[C@@H]1[C@H](F)C(=O)N[C@@H]1COc1nccc2cc(C(N)=O)c(OC)cc12 [ZIMLOVISERTIB]
% of inhibition [11]: 1.5%
% of inhibition [12]: -42.6%
% of inhibition ([13]; at 0.01 µM): -13.4%
% of inhibition ([13]; at 0.04 µM): 9.7%
% of inhibition ([13]; at 0.2 µM): -2.6%
% of inhibition ([13]; at 1 µM): -0.1%
% of inhibition ([13]; at 5 µM): -10.1%

CNC(=O)Nc1ccc(-c2nc(N3CC4CCC(C3)O4)c3cnn(C4CCC5(CC4)OCCO5)c3n2)cc1
% of control [14]: 93%

N#Cc1cccc(-c2c[nH]c3ncnc(N4CCOCC4)c23)c1
% of control [15]: 100%

From ChEMBL document CHEMBL5465560, “Selectivity Literature for EUbOPEN Chemogenomic Library” (2024)
